Read-outs that look alike come from different tables or passages of the source.
Assays:
Assay type in all cases: in vivo
[1] = system: ducksalad (Heteranthera limosa); assay: Test C flooded paddy test plant response; conditions: Flood, 250 g ai/ha, scale of 0 to 100 where 0 is no effect and 100 is complete control, 13 to 15 days
Outline: (§1)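 Two-leaf stage → flood to 3 cm → compound into water → hold depth, greenhouse 13–15 d → visual score vs controls (0 none, 100 complete control).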

rice (Oryza sativa) = assay: Test C flooded paddy test plant response; conditions: Flood, 250 g ai/ha, scale of 0 to 100 where 0 is no effect and 100 is complete control, 13 to 15 days
Outline: as §1

[2] = system: small-flower umbrella sedge (Cyperus difformis); assay: Test C flooded paddy test plant response; conditions: Flood, 250 g ai/ha, scale of 0 to 100 where 0 is no effect and 100 is complete control, 13 to 15 days
Outline: as §1

[3] = system: barnyardgrass (Echinochloa crus-galli); assay: Test C flooded paddy test plant response; conditions: Flood, 250 g ai/ha, scale of 0 to 100 where 0 is no effect and 100 is complete control, 13 to 15 days
Outline: as §1

[4] = system: morningglory (Ipomoea spp.); assay: Test B pre-/postemergence plant response; conditions: for pest or weed control at 1000 g/ha: Ipomoea, 240 h, 1000 g ai/ha, read-out: Plant response rating, Morningglory
Outline: (§2)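 Greenhouse pots, loam/sand soil; compound formulated with surfactant in non-phytotoxic solvent. Preemergence soil spray and postemergence spray at 1–2 leaf stage run simultaneously. Visual injury, 0–100, about 10 days post-treatment.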

[5] = system: pigweed (Amaranthus retroflexus); assay: Test B pre-/postemergence plant response; conditions: for pest or weed control at 1000 g/ha: Amaranthus retroflexus, 240 h, 1000 g ai/ha, read-out: Plant response rating, Pigweed
Outline: as §2

[6] = system: velvetleaf (Abutilon theophrasti); assay: Test B pre-/postemergence plant response; conditions: for pest or weed control at 1000 g/ha: Abutilon theophrasti, 240 h, 1000 g ai/ha, read-out: Plant response rating, Velvetleaf
Outline: as §2

corn (Zea mays) = assay: Test B pre-/postemergence plant response; conditions: for Corn plant response rating (crop injury, 0 = no effect, 100 = complete kill) at 1000 g/ha: Zea mays, 240 h, 1000 g ai/ha
Outline: as §2

[7] = system: barnyardgrass (Echinochloa crus-galli); assay: Test B pre-/postemergence plant response; conditions: for pest or weed control at 1000 g/ha: Echinochloa crus-galli, 240 h, 1000 g ai/ha, read-out: Plant response rating, Barnyardgrass
Outline: as §2

[8] = system: wheat (Triticum aestivum); assay: Test B pre-/postemergence plant response; conditions: for plant injury at 1000 g/ha: Triticum aestivum, 240 h, 1000 g ai/ha, read-out: Plant response rating, Wheat
Outline: as §2

[9] = system: giant foxtail (Setaria faberii); assay: Test B pre-/postemergence plant response; conditions: for pest or weed control at 1000 g/ha: Setaria faberi, 240 h, 1000 g ai/ha, read-out: Plant response rating, Foxtail, Giant
Outline: as §2

[10] = system: large (Lg) crabgrass (Digitaria sanguinalis); assay: Test B pre-/postemergence plant response; conditions: for pest or weed control at 1000 g/ha: Digitaria sanguinalis, 240 h, 1000 g ai/ha, read-out: Plant response rating, Crabgrass, Large
Outline: as §2

[11] = post-emergence, Postemergence, 0 to 100 scale (0 no effect, 100 complete control)
[12] = pre-emergence, Preemergence, 0 to 100 scale (0 no effect, 100 complete control)
[13] = 125 g ai/ha, postemergence, 0 to 100 scale, 0 no effect, 100 complete control
[14] = Postemergence, 500 g ai/ha, 0 to 100 scale (0 no effect, 100 complete control)
[15] = Preemergence, 125 g ai/ha, 0 to 100 scale where 0 is no effect and 100 is complete control
[16] = Preemergence, 500 g ai/ha, 0 to 100 scale (0 no effect, 100 complete control)

Clc1cnc(Oc2ccccc2-c2cc(Br)no2)nc1 [Compound 12, 2-[2-(3-bromo-5-isoxazolyl)phenoxy]-5-chloropyrimidine]
70%: pest or weed control at 1000 g/ha [6, 12]
30%: pest or weed control at 1000 g/ha [4, 11] | pest or weed control at 1000 g/ha [10, 11]
100%: pest or weed control at 1000 g/ha [5, 11]
10%: pest or weed control at 250 g/ha ([3]; Echinochloa crus-galli, read-out: Barnyardgrass plant response rating) | plant injury at 1000 g/ha [8, 11]
0%: plant injury at 250 g/ha (rice (Oryza sativa); Oryza sativa, read-out: Rice plant response rating) | pest or weed control at 250 g/ha ([2]; Cyperus difformis, read-out: Sedge, Umbrella plant response rating) | pest or weed control at 1000 g/ha [4, 12] | Corn plant response rating (crop injury, 0 = no effect, 100 = complete kill) at 1000 g/ha (corn (Zea mays); [11]) | Corn plant response rating (crop injury, 0 = no effect, 100 = complete kill) at 1000 g/ha (corn (Zea mays); [12]) | plant injury at 1000 g/ha [8, 12]
90%: pest or weed control at 1000 g/ha [5, 12] | pest or weed control at 1000 g/ha [6, 11] | pest or weed control at 1000 g/ha [9, 12]
80%: pest or weed control at 1000 g/ha [10, 12]
40%: pest or weed control at 250 g/ha ([1]; Heteranthera limosa, read-out: Ducksalad plant response rating) | pest or weed control at 1000 g/ha [7, 11] | pest or weed control at 1000 g/ha [9, 11]
20%: pest or weed control at 1000 g/ha [7, 12]

FC(F)(F)c1cnc(Oc2ccccc2-c2cncs2)nc1 [Compound 13]
80: Plant response rating, Pigweed [5, 16]
0: Rice plant response rating (rice (Oryza sativa)) | Sedge, Umbrella plant response rating [2] | Barnyardgrass plant response rating [3] | Plant response rating, Morningglory [4, 13] | Plant response rating, Morningglory [4, 15] | Plant response rating, Morningglory [4, 16] | Plant response rating, Pigweed [5, 13] | Plant response rating, Pigweed [5, 15] | Plant response rating, Velvetleaf [6, 15] | Plant response rating, Corn (corn (Zea mays); [13]) | Plant response rating, Corn (corn (Zea mays); [15]) | Plant response rating, Corn (corn (Zea mays); [16]) | Plant response rating, Barnyardgrass [7, 13] | Plant response rating, Barnyardgrass [7, 14] | Plant response rating, Barnyardgrass [7, 15] | Plant response rating, Barnyardgrass [7, 16] | Plant response rating, Wheat [8, 13] | Plant response rating, Wheat [8, 14] | Plant response rating, Wheat [8, 15] | Plant response rating, Wheat [8, 16] | Plant response rating, Foxtail, Giant [9, 13] | Plant response rating, Foxtail, Giant [9, 14] | Plant response rating, Foxtail, Giant [9, 15] | Plant response rating, Crabgrass, Large [10, 13] | Plant response rating, Crabgrass, Large [10, 15]
30: Plant response rating, Velvetleaf [6, 13]
40: Ducksalad plant response rating [1] | Plant response rating, Pigweed [5, 14]
10: Plant response rating, Morningglory [4, 14] | Plant response rating, Velvetleaf [6, 16] | Plant response rating, Corn (corn (Zea mays); [14]) | Plant response rating, Foxtail, Giant [9, 16] | Plant response rating, Crabgrass, Large [10, 14] | Plant response rating, Crabgrass, Large [10, 16]
60: Plant response rating, Velvetleaf [6, 14]

FC(F)(F)c1cnc(Oc2ccccc2-c2cscn2)nc1 [Compound 14]
30: Plant response rating, Velvetleaf [6, 14] | Plant response rating, Corn (corn (Zea mays); [14]) | Plant response rating, Foxtail, Giant [9, 16]
20: Plant response rating, Velvetleaf [6, 13] | Plant response rating, Velvetleaf [6, 16] | Plant response rating, Crabgrass, Large [10, 16]
0: Rice plant response rating (rice (Oryza sativa)) | Sedge, Umbrella plant response rating [2] | Barnyardgrass plant response rating [3] | Plant response rating, Morningglory [4, 13] | Plant response rating, Morningglory [4, 14] | Plant response rating, Morningglory [4, 15] | Plant response rating, Morningglory [4, 16] | Plant response rating, Pigweed [5, 13] | Plant response rating, Pigweed [5, 15] | Plant response rating, Velvetleaf [6, 15] | Plant response rating, Corn (corn (Zea mays); [13]) | Plant response rating, Corn (corn (Zea mays); [15]) | Plant response rating, Corn (corn (Zea mays); [16]) | Plant response rating, Barnyardgrass [7, 13] | Plant response rating, Barnyardgrass [7, 14] | Plant response rating, Barnyardgrass [7, 15] | Plant response rating, Barnyardgrass [7, 16] | Plant response rating, Wheat [8, 13] | Plant response rating, Wheat [8, 14] | Plant response rating, Wheat [8, 15] | Plant response rating, Wheat [8, 16] | Plant response rating, Foxtail, Giant [9, 13] | Plant response rating, Foxtail, Giant [9, 15] | Plant response rating, Crabgrass, Large [10, 13] | Plant response rating, Crabgrass, Large [10, 15]
10: Plant response rating, Foxtail, Giant [9, 14] | Plant response rating, Crabgrass, Large [10, 14]
100: Plant response rating, Pigweed [5, 16]
50: Plant response rating, Pigweed [5, 14]
40: Ducksalad plant response rating [1]

Clc1cnc(Oc2ccccc2-c2nccc(Cl)n2)nc1 [Compound 18]
20: Plant response rating, Crabgrass, Large [10, 16]
30: Plant response rating, Pigweed [5, 16]
10: Plant response rating, Foxtail, Giant [9, 16]
0: Ducksalad plant response rating [1] | Rice plant response rating (rice (Oryza sativa)) | Sedge, Umbrella plant response rating [2] | Barnyardgrass plant response rating [3] | Plant response rating, Morningglory [4, 13] | Plant response rating, Morningglory [4, 14] | Plant response rating, Morningglory [4, 15] | Plant response rating, Morningglory [4, 16] | Plant response rating, Pigweed [5, 13] | Plant response rating, Pigweed [5, 14] | Plant response rating, Pigweed [5, 15] | Plant response rating, Velvetleaf [6, 13] | Plant response rating, Velvetleaf [6, 14] | Plant response rating, Velvetleaf [6, 15] | Plant response rating, Velvetleaf [6, 16] | Plant response rating, Corn (corn (Zea mays); [13]) | Plant response rating, Corn (corn (Zea mays); [14]) | Plant response rating, Corn (corn (Zea mays); [15]) | Plant response rating, Corn (corn (Zea mays); [16]) | Plant response rating, Barnyardgrass [7, 13] | Plant response rating, Barnyardgrass [7, 14] | Plant response rating, Barnyardgrass [7, 15] | Plant response rating, Barnyardgrass [7, 16] | Plant response rating, Wheat [8, 13] | Plant response rating, Wheat [8, 14] | Plant response rating, Wheat [8, 15] | Plant response rating, Wheat [8, 16] | Plant response rating, Foxtail, Giant [9, 13] | Plant response rating, Foxtail, Giant [9, 14] | Plant response rating, Foxtail, Giant [9, 15] | Plant response rating, Crabgrass, Large [10, 13] | Plant response rating, Crabgrass, Large [10, 14] | Plant response rating, Crabgrass, Large [10, 15]

Source: patent US10131652B2, “Pyrimidinyloxy benzene derivatives as herbicides” (E. I. DU PONT DE NEMOURS AND COMPANY, priority 2014, dated 2018)
